Literature values, collected in US20120282337A1, “Modified Release Formulation” (BOEHRINGER INGELHEIM INTERNATIONAL GMBH, priority 2006, published 2012).
Counter-ions that a name gives are not always drawn.

Tests used:
[1] = not given; remark: listed apart in the source
[2] = in vivo
dopamine D2 receptor = dopamine D2 receptor (Homo sapiens, UniProt P14416)
dopamine D2 receptor, sequence (P14416 whole entry, species assumed): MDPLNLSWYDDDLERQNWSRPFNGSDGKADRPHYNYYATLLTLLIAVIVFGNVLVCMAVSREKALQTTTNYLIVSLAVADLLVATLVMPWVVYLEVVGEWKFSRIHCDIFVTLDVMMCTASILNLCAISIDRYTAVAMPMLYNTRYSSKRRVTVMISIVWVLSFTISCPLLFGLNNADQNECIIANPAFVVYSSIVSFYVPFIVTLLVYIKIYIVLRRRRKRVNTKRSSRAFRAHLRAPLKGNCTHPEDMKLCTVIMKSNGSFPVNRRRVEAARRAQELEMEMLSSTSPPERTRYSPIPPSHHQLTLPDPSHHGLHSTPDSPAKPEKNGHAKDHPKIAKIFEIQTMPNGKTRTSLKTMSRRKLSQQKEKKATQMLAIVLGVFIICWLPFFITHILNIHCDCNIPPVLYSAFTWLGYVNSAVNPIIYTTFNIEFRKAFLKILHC

With `CCCN[C@H]1CCc2nc(N)sc2C1` [Pramipexole dihydrochloride monohydrate, pramipexole dihydrochloride monohydrate] as the compound, how does the “solubility in buffer media” value (between pH 2 and pH 7.4) read?
Its value is “above 10 mg/ml”.

And the Water solubility (water)?
Its Water solubility is “more than 20 mg/ml”.

What does the source list for `CCCN[C@H]1CCc2nc(N)sc2C1` [Pramipexole, (S)-2-Amino-4,5,6,7-tetrahydro-6-(propylamino)benzothiazole]?
stability in solution ([1]; in solution): light sensitive; stability in the solid state ([1]; solid state): very stable; kinetics [2]: linear kinetics; agonist type at dopamine D2 receptor (dopamine D2 receptor): full agonist
